Results taken from patent US20230399312A1, “SUBSTITUTED PYRIMIDINES AND METHODS OF USE” (THERAVANCE BIOPHARMA R&D IP, LLC, priority 2020, published 2023).

What was measured:
[1] = molecular target: T1, recombinant human ALK5 (TGF-βR1) protein (Homo sapiens, UniProt P36897); experiment: Biochemical ALK5 (TGF-βR1) assay to measure pKi (LANCE Ultra ULight kinase assay); settings: apparent pKi, converted from pIC50 by Cheng-Prusoff
T1 construct: purchased Life Technologies PR9075A
T1 sequence (P36897 34-503): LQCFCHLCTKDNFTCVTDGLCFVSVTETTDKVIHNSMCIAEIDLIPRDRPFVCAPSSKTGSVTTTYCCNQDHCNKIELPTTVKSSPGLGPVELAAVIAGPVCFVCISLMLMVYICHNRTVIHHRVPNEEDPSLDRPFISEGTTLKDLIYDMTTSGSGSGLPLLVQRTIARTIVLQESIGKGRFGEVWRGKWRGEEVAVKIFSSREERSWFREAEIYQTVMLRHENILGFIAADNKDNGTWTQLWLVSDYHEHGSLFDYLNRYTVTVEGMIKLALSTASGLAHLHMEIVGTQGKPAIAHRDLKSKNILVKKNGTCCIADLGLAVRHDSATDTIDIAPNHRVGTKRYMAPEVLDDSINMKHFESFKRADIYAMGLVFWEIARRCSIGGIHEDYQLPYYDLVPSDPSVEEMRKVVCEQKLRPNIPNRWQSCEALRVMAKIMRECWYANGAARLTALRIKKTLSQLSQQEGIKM
Method in brief: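 Dose-response series of each compound were preincubated with the kinase for 60 minutes at room temperature. Phosphorylation proceeded for 60 minutes at 37 °C after ATP addition, was quenched with EDTA, and was detected with a europium anti-phospho-Thr1342 antibody by TR-FRET; pKi was calculated from pIC50.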

[2] = test system: TGF-β-stimulated SMAD3 phosphorylation in BEAS-2B cells; experiment: Cellular ALK5 potency assay, inhibition of TGF-β stimulated pSMAD3 formation in BEAS-2B cells; format: cell-based; settings: Homo sapiens, pSMAD3, TGF-β 10 ng/mL, read-out: BEAS2B pIC50 (converted)
Method in brief: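 Cells were seeded overnight, rinsed into HEPES/BSA-supplemented HBSS, and dosed with serially diluted compound for 1 h at 37 °C, 5% CO2. TGF-β stimulation (10 ng/mL final) followed for 30 min, then lysis and AlphaLISA pSMAD3 measurement; potency reported as pIC50.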

Compound | Ki [1] [nM] | IC50 [2] [nM]
Cc1cccc(-c2nccc(Nc3ccnc(Nc4cccc(NC(=O)C5CCNC5)c4)n3)n2)n1 (stereo not shown) [Compound 227, N-[3-[[4-[[2-(6-methyl-2-pyridyl)pyrimidin-4-yl]amino]pyrimidin-2-yl]amino]phenyl]pyrrolidine-3-carboxamide] | 0.0398 to 0.316 | ≤ 20
Cc1cccc(-c2nccc(Nc3ccnc(Nc4ccc(NC(=O)N5CCNCC5)cc4)n3)n2)n1 [Compound 228, N-(4-((4-((2-(6-methylpyridin-2-yl)pyrimidin-4-yl)amino)pyrimidin-2-yl)amino)phenyl)piperazine-1-carboxamide] | 0.0398 to 0.316 | 25.1 to 158
Cc1cccc(-c2nccc(Nc3ccnc(Nc4ccc(NS(=O)(=O)C5CCNCC5)cc4)n3)n2)n1 [Compound 229, N-[4-[[4-[[2-(6-methyl-2-pyridyl)pyrimidin-4-yl]amino]pyrimidin-2-yl]amino]phenyl]piperidine-4-sulfonamide] | 0.0398 to 0.316 | 25.1 to 158
Cc1cccc(-c2nccc(Nc3ccnc(Nc4ccc(C5CCNC5)cc4)n3)n2)n1 (stereo not shown) [Compound 231, N4-[2-(6-methyl-2-pyridyl)pyrimidin-4-yl]-N2-(4-pyrrolidin-3-ylphenyl)pyrimidine-2,4-diamine] | 0.0398 to 0.316 | 25.1 to 158
Cc1cccc(-c2nccc(Nc3ccnc(Nc4ccc(-c5cn6c(n5)CNCC6)cc4)n3)n2)n1 [Compound 232, N4-[2-(6-methyl-2-pyridyl)pyrimidin-4-yl]-N2-[4-(5,6,7,8-tetrahydroimidazo[1,2-a]pyrazin-2-yl)phenyl]pyrimidine-2,4-diamine] | 0.0398 to 0.316 | 25.1 to 158
Cc1cccc(-c2nccc(Nc3ccnc(Nc4cccc(N5CCN(C)CC5)c4)n3)n2)n1 [Compound 233, N2-[3-(4-methylpiperazin-1-yl)phenyl]-N4-[2-(6-methyl-2-pyridyl)pyrimidin-4-yl]pyrimidine-2,4-diamine] | 0.0398 to 0.316 | 25.1 to 158
Cc1cccc(-c2nccc(Nc3ccnc(Nc4ccc(Br)cc4)n3)n2)n1 [Compound 234, N2-(4-bromophenyl)-N4-[2-(6-methyl-2-pyridyl)pyrimidin-4-yl]pyrimidine-2,4-diamine] | 3.98 to 31.6 | 25.1 to 158
Cc1cccc(-c2nccc(Nc3ccnc(Nc4ccc(N5CCN(CC6CCC(=O)O6)CC5)cc4)n3)n2)n1 (stereo not shown) [Compound 235, 5-[[4-[4-[[4-[[2-(6-methyl-2-pyridyl)pyrimidin-4-yl]amino]pyrimidin-2-yl]amino]phenyl]piperazin-1-yl]methyl]tetrahydrofuran-2-one] | 0.0398 to 0.316 | ≤ 20
COC(=O)C1CN(CCNc2ccc(Nc3nccc(Nc4ccnc(-c5cccc(C)n5)n4)n3)cc2)CCN1C (stereo not shown) [Compound 236, methyl 1-methyl-4-[2-[4-[[4-[[2-(6-methyl-2-pyridyl)pyrimidin-4-yl]amino]pyrimidin-2-yl]amino]anilino]ethyl] piperazine-2-carboxylate] | 0.398 to 3.16 | 25.1 to 158
Cc1cccc(-c2nccc(Nc3ccnc(Nc4ccc(CN5CC(C(=O)O)C5)cc4)n3)n2)n1 [Compound 237, 1-[[4-[[4-[[2-(6-methyl-2-pyridyl)pyrimidin-4-yl]amino]pyrimidin-2-yl]amino]phenyl]methyl] azetidine-3-carboxylic acid] | 0.0398 to 0.316 | 200 to 1260
Cc1cccc(-c2nccc(Nc3ccnc(Nc4ccc(Cl)c(CN5CCN(C)CC5)c4)n3)n2)n1 [Compound 238, N2-[4-chloro-3-[(4-methylpiperazin-1-yl)methyl]phenyl]-N4-[2-(6-methyl-2-pyridyl)pyrimidin-4-yl]pyrimidine-2,4-diamine] | 0.0398 to 0.316 | 25.1 to 158
Cc1cccc(-c2nccc(Nc3ccnc(Nc4ccc(C(=O)OC5CCNCC5)s4)n3)n2)n1 [Compound 239, 4-piperidyl 5-[[4-[[2-(6-methyl-2-pyridyl)pyrimidin-4-yl]amino]pyrimidin-2-yl]amino]thiophene-2-carboxylate] | 0.0398 to 0.316 | 25.1 to 158
Cc1cccc(-c2nccc(Nc3ccnc(Nc4ccc(CN5C[C@@H](C)N[C@@H](C)C5)cc4)n3)n2)n1 [Compound 240, N2-[4-[[(3R,5S)-3,5-dimethylpiperazin-1-yl]methyl]phenyl]-N4-[2-(6 methyl-2-pyridyl)pyrimidin-4-yl]pyrimidine-2,4-diamine] | 0.0398 to 0.316 | 25.1 to 158
CCOC(=O)CC1CNCCN1c1ccc(Nc2nccc(Nc3ccnc(-c4cccc(C)n4)n3)n2)cc1 (stereo not shown) [Compound 241, ethyl 2-[1-[4-[[4-[[2-(6-methyl-2-pyridyl)pyrimidin-4-yl]amino]pyrimidin-2-yl]amino]phenyl]piperazin-2-yl]acetate] | 0.0398 to 0.316 | 25.1 to 158
Cc1cccc(-c2nccc(Nc3ccnc(Nc4ccc(CN5CCOCC5)c(F)c4)n3)n2)n1 [Compound 242, N2-[3-fluoro-4-(morpholinomethyl)phenyl]-N4-[2-(6-methyl-2-pyridyl)pyrimidin-4-yl]pyrimidine-2,4-diamine] | 0.0398 to 0.316 | 25.1 to 158
Cc1cccc(-c2nccc(Nc3ccnc(Nc4ccc(N5CCC(N(C)Cc6ccccn6)CC5)cc4)n3)n2)n1 [Compound 243, N2-[4-[4-[methyl(2-pyridylmethyl)amino]-1-piperidyl]phenyl]-N4-[2-(6-methyl-2-pyridyl)pyrimidin-4-yl]pyrimidine-2,4-diamine] | 0.0398 to 0.316 | 25.1 to 158
Cc1cccc(-c2nccc(Nc3ccnc(Nc4ccc(F)c(CN5CCN(C)CC5)c4)n3)n2)n1 [Compound 244, N2-[4-fluoro-3-[(4-methylpiperazin-1-yl)methyl]phenyl]-N4-[2-(6-methyl-2-pyridyl)pyrimidin-4-yl]pyrimidine-2,4-diamine] | 0.0398 to 0.316 | 25.1 to 158

Now from value to molecule, other results behind:

Ki [1] [nM] | Compound | IC50 [2] [nM]
0.0398 to 0.316 | Cc1cccc(-c2nccc(Nc3ccnc(Nc4cnn(C5CCNC5)c4)n3)n2)n1 (stereo not shown) [Compound 245, N4-[2-(6-methyl-2-pyridyl)pyrimidin-4-yl]-N2-(1-pyrrolidin-3-ylpyrazol-4-yl)pyrimidine-2,4-diamine] | 200 to 1260
0.0398 to 0.316 | CN(C)C1CCN(c2ccc(Nc3nccc(Nc4ccnc(-c5cc(Cl)c(F)cc5F)n4)n3)cc2)CC1 [Compound 246, N4-[2-(5-chloro-2,4-difluoro-phenyl)pyrimidin-4-yl]-N2-[4-[4-(dimethylamino)-1-piperidyl]phenyl]pyrimidine-2,4-diamine] | 25.1 to 158
0.0398 to 0.316 | Cc1cccc(-c2nccc(Nc3ccnc(Nc4ccc(C)c(CN5CCNCC5)c4)n3)n2)n1 [Compound 247, N2-[4-methyl-3-(piperazin-1-ylmethyl)phenyl]-N4-[2-(6-methyl-2-pyridyl)pyrimidin-4-yl]pyrimidine-2,4-diamine] | 25.1 to 158
0.0398 to 0.316 | Cc1cccc(-c2nccc(Nc3ccnc(Nc4ccc(CN5CCC(C(=O)OC6CCN(C)C6)CC5)cc4)n3)n2)n1 (stereo not shown) [Compound 248, (1-methylpyrrolidin-3-yl) 1-[[4-[[4-[[2-(6-methyl-2-pyridyl)pyrimidin-4-yl]amino]pyrimidin-2-yl]amino]phenyl]methyl] piperidine-4-carboxylate] | 25.1 to 158
0.0398 to 0.316 | Cc1cccc(-c2nccc(Nc3ccnc(Nc4ccc(CN5CCNC(C)(C)C5)cc4)n3)n2)n1 [Compound 249, N2-[4-[(3,3-dimethylpiperazin-1-yl)methyl]phenyl]-N4-[2-(6-methyl-2-pyridyl)pyrimidin-4-yl]pyrimidine-2,4-diamine] | 25.1 to 158
0.398 to 3.16 | COCCOc1ccc(Nc2nccc(Nc3ccnc(-c4cccc(C)n4)n3)n2)cc1 [Compound 250, N2-[4-(2-methoxyethoxy)phenyl]-N4-[2-(6-methyl-2-pyridyl)pyrimidin-4-yl]pyrimidine-2,4-diamine] | 25.1 to 158
0.0398 to 0.316 | CNC1CCN(c2ccc(Nc3nccc(Nc4ccnc(-c5cccc(C)n5)n4)n3)cc2)CC1 [Compound 251, N2-[4-[4-(methylamino)-1-piperidyl]phenyl]-N4-[2-(6-methyl-2-pyridyl)pyrimidin-4-yl]pyrimidine-2,4-diamine] | 200 to 1260
≤ 0.0316 | COC(=O)Cc1cc(Nc2nccc(Nc3ccnc(-c4cccc(C)n4)n3)n2)ccc1N1CCNCC1 [Compound 252, methyl 2-[5-[[4-[[2-(6-methyl-2-pyridyl)pyrimidin-4-yl]amino]pyrimidin-2-yl]amino]-2-piperazin-1-yl-phenyl]acetate] | 25.1 to 158
0.0398 to 0.316 | Cc1cccc(-c2nccc(Nc3ccnc(Nc4ccc(CCN(C)C)cc4)n3)n2)n1 [Compound 253, N2-[4-[2-(dimethylamino)ethyl]phenyl]-N4-[2-(6-methyl-2-pyridyl)pyrimidin-4-yl]pyrimidine-2,4-diamine] | 25.1 to 158
